Source: PMC4569013, “Massive Bioaccumulation and Self‐Assembly of Phenazine Compounds in Live Cells” (Advanced Science, 2015)

System: RAW264.7 macrophages
Assay: Cell accumulation experiment, transmitted light microscopy of cellular staining pattern
Format: cell-based
Settings: for Inferred uptake: inferred from staining pattern after 72 hour incubation; for Observed cellular staining pattern (Notes): live cells, 72 hour incubation, 5 × 10^−6 M (2.5 × 10^−6 M for I); for Cellular staining relative to clofazimine: live macrophages, 72 h; for Staining in fixed cells: methanol-fixed cells incubated 72 h with compound (control)
Experimental: Cell Accumulation Experiments and Transmitted Light Microscopic Examination: […] After a 24 h incubation (37 °C, 5% CO2), cells were incubated with solution of clofazmine or its chemical derivatives (300 μL of 5 × 10^−6 m concentration; measured cell viability ranging from 85% to 97% for all compounds tested at this concentration; Figure 1) in DMEM (no phenol red; plus 1 × 10^−3 M sodium pyruvate and 5% FBS). For Compound “I,” 2.5 × 10^−6 M of compound solution in media was used for the RAW 264.7 macrophages incubation because of lower cell viability at higher concentrations (IC50 = (3.95 ± 0.11) × 10^−6 M). A solution of clofazmine or other chemical derivatives was made by a diluting stock solutions (2.5 × 10^−3 M in DMSO; 10 × 10^−3 M stock in DMSO were stored at −80 °C for further use) into DMEM with 5% FBS. […] The extracellular concentration of each compound in each well was maintained by daily replacement of the compound‐containing media. After 72 h of incubation with clofazmine or its derivatives, compound‐containing media were removed and cells were washed twice with media. Live cells in the chambered glasses were examined under inverted transmitted light microscopy (Nikon Eclipse Ti microscope) with a 40× objective and color camera. As a control experiment, fixed cells were also microscopically examined after incubation with the compounds. Cells were seeded on the chambered cover glasses at the density of 1.5 × 10^4 cells cm^−2 (RAW264.7 macrophages) or 2.5 × 10^4 cells cm^−2 (MDCK epithelial cells). After an overnight incubation (37 °C, 5% CO2), media was removed from the wells and cold methanol (−20 °C) was added to each well. After 30 s, remaining methanol was removed by washing with media with 5% FBS. Fixed cells were incubated (37 °C, 5% CO2) with clofazmine or derivatives (300 μL of 5 × 10^−6 M; 2.5 × 10^−6 M for I) in media with 5% FBS. After 72 h, fixed RAW264.7 or MDCK cells were washed with media and examined using the same transmitted microscopy conditions as the live cells.

Structure (SMILES)	Inferred uptake	Observed cellular staining pattern (Notes)	Cellular staining relative to clofazimine	Staining in fixed cells
COc1ccc(Nc2cc3nc4ccccc4n(-c4ccc(OC)cc4)c-3cc2=NC(C)C)cc1 [A]	Slow	did not exhibit any intracellular staining pattern		
CC(C)N=c1cc2n(-c3ccc(C#N)cc3)c3ccccc3nc-2cc1Nc1ccc(C#N)cc1 [B]	Very slow	formed large extracellular crystals. No intracellular staining pattern		
CC(C)N=c1cc2n(-c3ccc(-c4ccccc4)cc3)c3ccccc3nc-2cc1Nc1ccc(-c2ccccc2)cc1 [C]	Slow	Very faint, brown perinuclear staining pattern observed across all cells		
CC(C)N=c1cc2n(-c3ccc(C(F)(F)F)cc3)c3ccccc3nc-2cc1Nc1ccc(C(F)(F)F)cc1 [D]	Very slow	No intracellular staining pattern observed. Small percentage of cells with orange crystals		
CC(C)N=c1cc2n(-c3ccc(F)cc3)c3ccccc3nc-2cc1Nc1ccc(F)cc1 [E]	Slow	Very faint, brown perinuclear staining pattern observed across all cells		
COCCN=c1cc2n(-c3ccc(Cl)cc3)c3ccccc3nc-2cc1Nc1ccc(Cl)cc1 [H]	Moderate	Brown staining associated with vesicles/membranes	comparable in morphology and intensity to those of clofazimine	Fixed cells also exhibited staining
CCCCN=c1cc2n(-c3ccc(Cl)cc3)c3ccccc3nc-2cc1Nc1ccc(Cl)cc1 [K]	Slow	Very faint, brown perinuclear staining pattern		
NC(=O)CCN=c1cc2n(-c3ccc(Cl)cc3)c3ccccc3nc-2cc1Nc1ccc(Cl)cc1 [L]	Good	Small brown inclusions present in live cells		absent in fixed cells
COc1ccc2[nH]cc(CCN=c3cc4n(-c5ccc(Cl)cc5)c5ccccc5nc-4cc3Nc3ccc(Cl)cc3)c2c1 [M]	Good	Orange-brown or purple inclusions present in live cells	comparable in morphology and intensity to those of clofazimine	Staining not observed in fixed cells
Clc1ccc(Nc2cc3nc4ccccc4n(-c4ccc(Cl)cc4)c-3cc2=NCCN2CCOCC2)cc1 [N]	Moderate	Faint orange staining pattern associated with perinuclear cytoplasmic vesicles		Staining not observed in fixed cells
Oc1ccc(CCN=c2cc3n(-c4ccc(Cl)cc4)c4ccccc4nc-3cc2Nc2ccc(Cl)cc2)cc1O [O]	Good	Most of cells have shown faint orange colored vesicles		Staining not observed in fixed cells
